ChEMBL document CHEMBL3507680, “University of Dundee, Gates Library screen for HepG2 cell viability”

assay: Human HepG2 cell viability assay in 384 well format; assay type: toxicity, cell-based; set-up: dose 125 nL, time 70.5 hour; cytotoxicity at 70.5 h: concentration not given beside the values; details: HepG2 cells, read-out: Inhibition

In order of falling cytotoxicity at 70.5 h:
1. CC(=O)N1CCCN(C(=O)NCc2cc[nH]n2)CC1  44.8%
2. Cc1ccc(NS(=O)(=O)c2cc3c(c(C(=O)O)c2)OCCO3)c(F)c1  44.6%
3. Cc1nccn1-c1cc(CNC(=O)CCC2CCCO2)ccn1 (stereo unspecified)  43.5%
4. O=C(CCc1cccs1)N1CCC(Nc2cccnn2)CC1  42.7%
5. Cc1oc(-c2ccco2)nc1CN1CCCC(Cn2cncn2)C1 (stereo unspecified)  39.6%
6. COCCc1noc(CN2CCc3nn(C(C)C)c(=O)cc3C2)n1  32.4%
7. Cc1ccc(CNC2CCCN(Cc3noc(C4CC4)n3)C2)s1 (stereo unspecified)  28.4%
8. Cc1cc(C)c(CNC(=O)NC(C)c2ccc3c(c2)CCC3)c(=O)[nH]1 (stereo unspecified)  25.3%
9. CCc1noc(C)c1C(=O)N1CCCC1Cn1cc(C)cn1 (stereo unspecified)  25.2%
10. Cc1cc(CNC2CCCN(Cc3noc(C4CC4)n3)C2)on1 (stereo unspecified)  23.9%
11. CCc1nc(C(=O)N2CCN(C)CC2C)nn1-c1ccccc1Cl (stereo unspecified)  23.5%
12. O=C(CCC1CCCO1)NCc1ccnc(-n2cccn2)c1 (stereo unspecified)  23.5%
13. Cc1cnn(CCNCc2nc(CNC(=O)c3ccccc3)no2)c1  22.6%
14. CCc1nc(CN2CCCC(NCc3cnc(C)s3)C2)no1 (stereo unspecified)  22.5%
15. Cc1cc(C)c(CNC(=O)NCC(O)COc2ccccc2)c(=O)[nH]1 (stereo unspecified)  21.6%
16. CCn1ccnc1CN1CCN(Cc2cccc(C#N)c2)CC1  21.4%
17. CC(C(=O)NCc1ccnc(N2CCCCCC2)c1)n1cccn1 (stereo unspecified)  17.8%
18. Cc1[nH]nc2ncc(C(=O)N3CCN(CC(C)C)CC3)cc12  11.9%
19. CC(NC(=O)CSCC#N)c1cccc(NC(=O)c2ccccc2)c1 (stereo unspecified)  10.4%
20. CCN1CCN(C(=O)c2nc(C)n(-c3ccccc3Cl)n2)CC1  7.74%
21. CC(Cn1cccn1)NCc1nc(-c2cccc(Cl)c2)no1 (stereo unspecified)  7.24%
22. Cc1nn(C)c(C)c1C1CCCN1Cc1noc(C2CC2)n1 (stereo unspecified)  7.14%
23. Cc1ccccc1NS(=O)(=O)c1cc2c(c(C(=O)O)c1)OCCO2  6.41%
24. Cc1nc(CN2CCc3nn(C(C)C)c(=O)cc3C2)oc1C  4.51%
25. CC(Cn1cccn1)NCc1nc(-c2cccs2)no1 (stereo unspecified)  3.96%
26. CC(=O)NC1CCCN(C(=O)NCc2ccc(-c3ccn[nH]3)cc2)C1 (stereo unspecified)  3.22%
27. Cc1nccc(-c2cccc(NCC(=O)N3CCc4sccc4C3)c2)n1  2.9%
28. CC(C)c1noc(C(C)N2CCN(Cc3ccccc3C#N)CC2)n1 (stereo unspecified)  2.84%
29. CN(Cc1ccc(Cl)s1)C(=O)NCc1nnc2n1CCC2  2.59%
30. CC(C)c1nn(C)c(N(C)C)c1CNCc1ccc2c(c1)OCO2  2.49%
31. O=C(Cc1ccc2c(c1)CCC2)N1CCN(c2cnccn2)CC1  2.45%
32. Cc1ncsc1C(=O)NC1CCN(CC(=O)NCc2ccccc2)CC1  2.21%
33. CNC(=O)c1ccc(C(=O)N2CCCC2c2cnn(C)c2)cn1 (stereo unspecified)  1.99%
34. O=C(CCCOc1ccc(F)cc1F)N1CCCC1Cn1cccn1 (stereo unspecified)  1.98%
35. O=C(CN1C=Nc2ccccc2S1(=O)=O)NCCc1cccs1  1.55%
36. CC(C)(C)c1ncc(C(=O)NCCNC(=O)c2ccccc2)s1  1.17%
37. N#CC1(C(=O)N2CCCN(Cc3cscn3)CC2)CCCCC1  0.606%
38. Cc1noc(C)c1CN(C)C(=O)c1ccc(NC2CC2)nc1  0.339%
39. Cc1cc(C)c(CNC(=O)NCc2ccc3c(c2)OCCO3)c(=O)[nH]1  0.304%
40. CC(CCc1ccco1)NC(=O)Nc1cc(C(F)(F)F)c[nH]c1=O (stereo unspecified)  0.203%
41. CC(C)c1nc2c(n1C)CCN(Cc1cccc(OCC(N)=O)c1)C2  0.112%
42. CCc1nc(CN2CCN(C(=O)C3(C#N)CCCCC3)CC2)cs1  -0.0355%
43. CCc1nc2n(n1)CC(NCC(=O)Nc1cc(C(C)(C)C)no1)CC2 (stereo unspecified)  -0.0913%
44. Cc1nccc(-c2cccc(NCC(=O)N3CCNC3=O)c2)n1  -0.295%
45. CC(=O)Nc1nc(C(=O)N2CCCC(n3ccnc3)C2)cs1 (stereo unspecified)  -0.488%
46. CC(C(=O)NCCN1CCCCCC1)n1cncn1 (stereo unspecified)  -0.492%
47. COC1CCN(C(=O)CCc2c(C)nc3ccnn3c2C)CC1  -0.665%
48. CCNc1cc2c(nn1)CCN(C(=O)C1CCc3ccccc31)C2 (stereo unspecified)  -0.738%
49. O=C(c1cc2c(s1)CCC2)N1CCCC1c1noc(C2CC2)n1 (stereo unspecified)  -0.753%
50. CC(C)c1nc(C2CCCN(C(=O)Cn3ccccc3=O)C2)no1 (stereo unspecified)  -1.03%
51. CC(C)c1nn(C)c(N2CCOCC2)c1CN[C@H](C)CO  -1.16%
52. CCc1ccc(C(=O)N2CCN(CCO)CC2)o1  -1.18%
53. CC(C)c1nn(C)c(N2CCOCC2)c1CNC(C)c1cccs1 (stereo unspecified)  -1.47%
54. CC(C)c1cc(NC(=O)CN2CCCC2Cn2cccn2)on1 (stereo unspecified)  -1.57%
55. CCOc1ccccc1OC1CCN(C(=O)c2cnsn2)CC1  -1.79%
56. Cc1ncsc1C(=O)NC1CCN(CC(=O)N(C)c2ccccc2)CC1  -1.98%
57. Cc1noc(CNC2CCCN(Cc3noc(C4CC4)n3)C2)n1 (stereo unspecified)  -2.29%
58. Cc1ccsc1CNC1CCCN(Cc2noc(C3CC3)n2)C1 (stereo unspecified)  -2.45%
59. Cc1nn(C)c(C)c1CC(=O)N1CCCC(n2cccn2)C1 (stereo unspecified)  -2.45%
60. COC(=O)c1cc(C(=O)N2CCC(OC)CC2)n(-c2ccccc2)n1  -2.53%
61. COc1ccccc1CNC(=O)N1CCCC(c2nncn2C)C1 (stereo unspecified)  -2.85%
62. Cn1cnc2c1CCN(Cc1nc(Cc3ccccc3)no1)C2  -3.21%
63. Cc1nc(CN2CCCC(NCc3cccc(C(N)=O)c3)C2)no1 (stereo unspecified)  -3.45%
64. CCc1noc(C)c1C(=O)N1CCCC1Cn1nc(C)cc1C (stereo unspecified)  -3.58%
65. Cc1ccc(C)c(C(C)NC(=O)N2CCC(n3cncn3)CC2)c1 (stereo unspecified)  -3.74%
66. Cc1ccc(-c2noc(CN3CCOC(Cn4cccn4)C3)n2)cc1 (stereo unspecified)  -3.88%
67. CCOc1ccccc1C(=O)NS(=O)(=O)c1ccc2c(c1)OCCCO2  -4.55%
68. Cc1ccc(O)c(CNC2CCCN(Cc3noc(C4CC4)n3)C2)n1 (stereo unspecified)  -4.57%
69. N#CC1(C(=O)N2CCN(Cc3cscn3)CC2)CCCCC1  -4.74%
70. Cc1cc2n(n1)CC(CNCc1ccccc1-n1cccn1)CN2 (stereo unspecified)  -4.8%
71. COc1ccc(CCC(=O)NC2CCC(O)CC2)cc1OC (stereo unspecified)  -4.91%
72. CCc1nc(C2CCCN2CC(=O)N2CCc3ccccc32)no1 (stereo unspecified)  -5.32%
73. O=C(c1ccc2c(c1)CCO2)N1CCN(c2cnccn2)CC1  -5.33%
74. Cc1cc(CN2CCN(C(=O)NC(C)c3cccs3)CC2)on1 (stereo unspecified)  -5.41%
75. CC(C)c1noc(CCCC(=O)N2CCN(S(C)(=O)=O)CC2)n1  -5.72%
76. c1coc(-c2nc(CNCCn3cccn3)cs2)c1  -5.85%
77. COC(=O)c1ccc(N2CCN(C(=O)c3cnccn3)C(C)C2)cc1 (stereo unspecified)  -6.45%
78. CCc1nc(CN2CCCC(NCc3cccc(C(N)=O)c3)C2)no1 (stereo unspecified)  -6.52%
79. Cc1cc(NC(=O)CNC2CCc3nc(C(C)C)nn3C2)no1 (stereo unspecified)  -6.53%
80. COC(=O)c1ccc(N2CCN(CCN3CCOCC3)C(C)C2)cc1 (stereo unspecified)  -6.62%
81. CCc1nnc2n1CCN(Cc1ncc(-c3ccc(F)cc3)o1)C2  -6.74%
82. Cc1noc(Cl)c1CCC(=O)N1CCN(c2ncccn2)CC1  -7.01%
83. CC(C)c1noc(CCC(=O)N2CCN(Cc3ccncc3)CC2)n1  -7.35%
84. c1csc(-c2nc(CNCCn3cccn3)cs2)c1  -7.37%
85. Cc1cc(C)c(CNC(=O)Cc2ccc3c(c2)CCCC3)c(=O)[nH]1  -7.45%
86. COC(=O)c1ccc(N2CCN(C(=O)c3ccc(O)nc3)C(C)C2)cc1 (stereo unspecified)  -7.53%
87. O=C(c1ccc(-n2cccn2)nc1)N1CCCC(n2cccn2)C1 (stereo unspecified)  -7.62%
88. CC(Cn1ccnc1)NC(=O)C1(c2ccc(F)cc2)CCCC1 (stereo unspecified)  -7.69%
89. CC(C)Oc1ncccc1CNC(=O)N1CCC1  -7.74%
90. Cn1cc(C2CCCN2C(=O)CCCc2ccccn2)cn1 (stereo unspecified)  -7.85%
91. COc1ccccc1C(C)NC(=O)N1CCC(n2cncn2)CC1 (stereo unspecified)  -7.85%
92. Cn1cc(NS(=O)(=O)c2ccc(F)c(F)c2)ccc1=O  -7.99%
93. CCc1ccc(C(C)NC(=O)N2CCC(n3cncn3)CC2)cc1 (stereo unspecified)  -8.05%
94. CCCNC(=O)N1CCN(Cc2cc(C)no2)CC1  -8.29%
95. Cn1ncc2c(=O)[nH]c(CN3CCCC3c3ccccc3Cl)nc21 (stereo unspecified)  -8.75%
96. Cc1cc(CN2CCN(C(=O)CCCc3nc(C(C)C)no3)CC2)on1  -8.77%
97. Cc1cc(CN2CCN(C(=O)NC(C)c3ccc(C)o3)CC2)on1 (stereo unspecified)  -9.49%
98. Cn1cnnc1C1CCN(C(=O)c2cc3c(s2)CCC3)CC1  -9.61%
99. Cc1cnn(C2CN(CC(=O)Nc3cccnc3)C2)c1  -9.68%
100. Cc1cc(CN2CCN(C(=O)NC(C)c3ccncc3)CC2)on1 (stereo unspecified)  -9.79%
101. CCn1cnnc1C1CCN(C(=O)c2cc3c(s2)CCOC3)CC1  -9.84%
102. CCc1nnc2n1CCN(CC(=O)Nc1sccc1C#N)C2  -9.93%
103. Cn1cc(C2CCCN2C(=O)c2ccc(Br)o2)cn1 (stereo unspecified)  -10.2%
104. Cc1ccccc1-c1noc(CN2CCOC(Cn3cccn3)C2)n1 (stereo unspecified)  -10.3%
105. CNS(=O)(=O)c1ccc(C(=O)NCCc2ccccn2)cc1  -10.7%
106. COc1ccc(CNC(=O)NCc2c(C)cc(C)[nH]c2=O)cc1  -11.9%
107. Cn1cc(C2CCCN2C(=O)CCCc2cccs2)cn1 (stereo unspecified)  -12.4%
108. COCCCNC(=O)N1CCCC(c2nncn2C)C1 (stereo unspecified)  -12.4%
109. Cc1cc(CN(C)C(=O)c2ccc(Cl)cc2N2CCCC2=O)no1  -12.5%
110. Cc1cc(CN(C)C(=O)c2cccc(N3CCCS3(=O)=O)c2)no1  -12.6%
111. Cc1nnc2n1CCN(CCC(=O)Nc1sccc1C#N)C2  -12.9%
112. CCc1nnc2n1CCN(Cc1ncc(-c3ccccc3)o1)C2  -13.5%
113. Cc1cnn(CC2CCCN2C(=O)CCc2cscn2)c1 (stereo unspecified)  -13.6%
114. O=C(CN1CCCC(Cn2cncn2)C1)NCc1ccco1 (stereo unspecified)  -15.8%
115. Cn1ncc2c(=O)[nH]c(CN3CCc4ccccc4C3)nc21  -15.9%
116. Cc1cnn(C2CN(CC(=O)NCCc3ccccc3)C2)c1  -16.2%
